Patent US12295997B2, “Prostate neoantigens and their uses” (Janssen Biotech, Inc., priority 2020, dated 2025)

Key:
HLA-B*08:01 = HLA-B*08:01 (Homo sapiens, UniProt P01889, A93T/A95T/D138N/E176V/E187T/K202T/Q94N/R180D/S35A/V36M/Y33D/Y91F); test: In vitro binding of neoantigens to class I MHC (UV peptide exchange, HLA class I ELISA)
Experimental: (§1) The 9 mer peptides identified by bioinformatics analysis were analyzed for their binding propensities to 6 common HLA class I alleles (HLA-A*01:01, A*02:01, A*03:01, A*24:02, B*07:02, B*08:01). The principle of the method is briefly described below and consists of two parts, one involving exchange of peptide with a positive control induced by Ultraviolet (UV) radiation, and the second is an enzyme immunoassay to detect stable HLA-peptide and empty HLA complexes.
(§2) HLA-bound peptides are critical for the stability of the HLA complex. A conditional HLA class I complex was stabilized by an UV-labile peptide utilizing a different peptide (Pos) for each HLA (Pos: HLA-A*01:01: […](SEQ ID NO: 409), HLA-A*02:01: […] (SEQ ID NO: 410), HLA-A*03:01: […] (SEQ ID NO: 411), HLA-A*24:02: […] (SEQ ID NO: 412), HLA-B*07:02: […] (SEQ ID NO: 413), HLA-B*08:01: […] (SEQ ID NO: 414), which could be cleaved by UV irradiation when bound to the HLA molecule. Upon cleavage, the resulting peptide fragments dissociated from the HLA class I complex since their length was insufficient to bind stably to HLA. Under the conditions in which peptide cleavage was performed (neutral pH, on melting ice), the peptide-free HLA complex remained stable.
(§3) The exchange efficiency between the peptide of interest and Pos was analyzed using an HLA class I ELISA. The combined technologies allowed the identification of ligands for an HLA molecule of interest which are potentially immunogenic.
(§4) Exchange control peptide Pos was a high affinity binder to the relevant HLA class I allele while exchange control peptide Neg was a non-binder. The UV control represented UV-irradiation of conditional HLA class I complex in the absence of a rescue peptide.
(§5) The HLA class I ELISA is an enzyme immunoassay based on the detection of beta2-microglobulin (B2M) of (peptide-stabilized) HLA class I complexes. To this end streptavidin was bound onto polystyrene microtiter wells. After washing and blocking, HLA complex present in exchange reaction mixtures or ELISA controls was captured by the streptavidin on the microtiter plate via its biotinylated heavy chain. Non-bound material was removed by washing. Subsequently, horseradish peroxidase (HRP)-conjugated antibody to human B2M was added. The HRP-conjugated antibody binds only to an intact HLA complex present in the microtiter well because unsuccessful peptide exchange results in disintegration of the original UV-sensitive HLA complex upon UV illumination. In the latter case B2M was removed during the washing step. After removal of non-bound HRP conjugate by washing, a substrate solution was added to the wells. A coloured product formed in proportion to the amount of intact HLA complex present in the samples. After the reaction was terminated by the addition of a stop solution, absorbance was measured in a microtiter plate reader. The absorbance was normalized to the absorbance of an exchange control peptide (represents 100%). Suboptimal HLA binding of peptides with a moderate to low affinity for HLA class I molecules can also be detected by this ELISA technique (Rodenko, B et al. (2006) Nature Protocols 1: 1120-32).
(§6) Peptides that had 10% or greater exchange efficiency in one of the 6 HLA alleles were considered for further immunogenicity testing and analysis.
(§7) Binding of select neoepitopes to HLA-A*01:01, HLA-A*02:01, HLA-A*03:01, HLAA*24:02, HLAAB*07:02 and HLA-B*08:01 was evaluated using the assay described in Example 1. […] As a criterion for further evaluation, peptides with an exchange rate of at least 10% with the corresponding Pos peptide for at least one of the 6 HLA alleles that we considered for further evaluation. The exchange rates with the allele specific Pos peptides, of the 24 neoantigens so identified are summarized below in Table 17. Higher percentages correspond to stronger binding to the HLA allele. […]

[1] = tested on: CD8+ T cells in PBMCs from human patients with metastatic castrate-resistant prostate cancer; test: Patient PBMC restimulation assay (in vitro immunogenicity, TNFα/IFNγ intracellular flow cytometry); format: cell-based; conditions: 9-mer peptide; for Maximum fold change over negative control: TNFα+IFNγ+CD8+ T cells, highest across PBMC donors evaluated; for Maximum frequency of TNFα^+IFNγ^+CD8^+ T cells (Percent): greatest frequency among all tested PBMC donors; for Immunogenic: patient PBMC restimulation
Experimental: PBMCs from human patients with metastatic castrate-resistant prostate cancer were thawed using media (RPMI 1640 supplemented with Glutamax, 10% HI FBS, and 1× Sodium Pyruvate). Cells were counted and plated in a 96 well round bottom microplate at a concentration of 250,000 viable cells per well. Lyophilized peptides were solubilized in 100% DMSO and diluted in media to 10 μg/mL. Neoantigen peptides were added in equal volume to PBMCs for a final concentration of 5 μg/mL. CEF Peptide Pool “Plus” (Cellular Technologies, Ltd.) was utilized as a positive control and DMSO at the same final concentration as the experimental peptides was utilized as a negative control. Human IL-15 (Peprotech) was added to all wells at final concentration of 10 ng/mL.
Plates were incubated at 37° C. (5% CO2) for a total of 13 days. Media was refreshed every 2 days with IL-15 (10 ng/mL final concentration) and IL-2 (R&D systems, 10 IU/mL final concentration). On day 12, PBMCs were re-stimulated with identical experimental peptides or controls, at same concentration as peptide stimulation on Day 1. After 1-hour incubation, protein Inhibitor Cocktail (eBioscience) was added to every well and plate was incubated overnight.
On day 13, cells were stained for intracellular flow cytometry analysis. The cells were washed with PBS and stained with Live/Dead Fixable Aqua Dead Cell stain (Thermo-Fisher). Following the live/dead stain, cells were blocked using Biotin-Free Fc Receptor Blocker (Accurate Chemical & Scientific Corp). Extracellular cellular flow panel ([…] per well in 50 μL) consisted of CD3 PerCP-Cy5.5 (Biolegend), CD4 BV421 (Biolegend), and CD8 APC-Cy7 (Biolegend). After extracellular staining, cells were fixed using Foxp3/fTranscription Factor Staining Buffer Set (eBioscience) and stained for intracellular proteins (1:50 dilution) using TNFα FITC (R&D Systems) and IFNγ BV785 (Biolegend). Cells were washed and resuspended in stain buffer and analyzed using a BD Celesta flow cytometer.
Flow cytometry cell staining analysis was completed using FlowJo v10. Cells were gated on live, singlet, CD3+ cells. The CD8+ T cells were analyzed for TNFα/IFNγ expression and the frequency of double positive TNFα/IFNγ CD8+ T cells was recorded. Responses were assessed to be positive when the frequency of double positive TNFα/IFNγ CD8+ T cells due to stimulation with an experimental peptide was increased greater than or equal to 2-fold over the DMSO only negative control for that patient. Peptides were analyzed in 1 to 7 patient samples.
The 9 mer fragments shown in Table 13 were assessed for their ability to activate T cells using the Patient PBMC restimulation assay described in Example 1 using TNFα and IFNγ production by CD8^+ T cells as a readout. Self-antigens shown in Table 15 were also used in the assays. […] PBMCs from ten patients were evaluated.

[2] = tested on: CD8+ and CD4+ T cells (autologous CD3+ Pan-T cells isolated from human normal PBMCs); test: Exogenous autologous normal donor restimulation assay (15-mer overlapping peptide pools on CD1c+ dendritic cells, TNFα/IFNγ flow cytometry); format: cell-based; conditions: Table 25, 15-mer overlapping peptide pool; for Maximum Fold Change Over Background CD4+ cells: TNFα+IFNγ+ CD4+ T cells; for Maximum Fold Change Over Background CD4+ cells / Maximum Fold Change Over Background CD8+ cells: highest fold change over negative control across normal donors; for Maximum Fold Change Over Background CD8+ cells: TNFα+IFNγ+ CD8+ T cells; for Maximum Frequency of TNFα/IFNγ Double Positive CD4+ T cells / Maximum Frequency of TNFα/IFNγ Double Positive CD8+ T cells: highest frequency across normal donors
Procedure, shortened: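 Readout was intracellular TNFα/IFNγ flow cytometry on live CD3+ CD8+ and CD4+ cells after day-11 peptide restimulation. Stimulators were CD1c+ dendritic cells loaded with overlapping 15-mer peptide pools (2.5–10 μg/mL), irradiated, and cultured 12 days with autologous normal-donor Pan-T cells plus IL-15/IL-2. A response counted when ≥3-fold over DMSO control and at least 0.01%.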

HLA-B*07:02 = HLA-B*07:02 (Homo sapiens, UniProt P01889); test: In vitro binding of neoantigens to class I MHC (UV peptide exchange, HLA class I ELISA); conditions: 100% = same binding as positive control peptide
Experimental: as §1, §2, §3, §4, §5, §6, §7

HLA-A*24:02 = HLA-A*24:02 (Homo sapiens, UniProt P04439, D101N/D140Y/D185E/E176V/E190D/F33S/G103R/G107R/I119L/I121M/I306V/K335N/L105A/L180Q/L300P/N151K/N90K/Q86E/Q94H/R106L/R138H/R89G/T104I/T345S/V100E/W191G/Y123F); test: as above; conditions: 100% = same binding as positive control peptide
Experimental: as §1, §2, §3, §4, §5, §6, §7

HLA-A*01:01 = HLA-A*01:01 (Homo sapiens, UniProt P04439, A114D/A174V/A182V/D101N/D185E/E176A/E190D/L180R/Q94H/R68K/S129P/T187R/V100A/V91M/W191G); test: as above; conditions: 100% = same binding as positive control peptide
Experimental: as §1, §2, §3, §4, §5, §6, §7

HLA-A*03:01 = HLA-A*03:01 (Homo sapiens, UniProt P04439); test: as above; conditions: 100% = same binding as positive control peptide
Experimental: as §1, §2, §3, §4, §5, §6
Binding of select neoepitopes to HLA-A*01:01, HLA-A*02:01, HLA-A*03:01, HLAA*24:02, HLAAB*07:02 and HLA-B*08:01 was evaluated using the assay described in Example 1. […] As a criterion for further evaluation, peptides with an exchange rate of at least 10% with the corresponding Pos peptide for at least one of the 6 HLA alleles that we considered for further evaluation. The exchange rates with the allele specific Pos peptides, of the 24 neoantigens so identified are summarized below in Table 17. Higher percentages correspond to stronger binding to the HLA allele.

HLA-A*02:01 = HLA-A*02:01 (Homo sapiens, UniProt P04439, D140Y/D185E/D98H/E176V/E277Q/G131W/G231S/I119V/I121R/I166T/I218V/L300P/L318F/N151K/N90K/P208A/P217A/Q86G/Q94H/R138H/R169H/T345S); test: as above; conditions: 100% = same binding as positive control peptide
Experimental: as §1, §2, §3, §4, §5, §6, §7

## 8 (QLIAMDSAI; listed as Homo sapiens) [Peptide 8]
HLA-B*08:01; Binding to HLA-B*08:01, UV peptide exchange, replicate I, Pos = 100
  Exch I (%): 8.0%
HLA-B*08:01; Binding to HLA-B*08:01, UV peptide exchange, replicate II, Pos = 100
  Exch II (%): 7.8%
HLA-B*08:01; Binding to HLA-B*08:01, average of Exch I and Exch II
  Average %: 7.9%

## GVPGDSTRRAVRRMNTF (listed as Homo sapiens) [Neoantigen P16]
[1]
  Maximum fold change over negative control: 65.82
  Maximum frequency of TNFα^+IFNγ^+CD8^+ T cells (Percent): 4.620%
  Immunogenic: Yes
[2]
  Maximum Fold Change Over Background CD4+ cells: 2.44
  Maximum Fold Change Over Background CD8+ cells: 2.44
  Maximum Frequency of TNFα/IFNγ Double Positive CD4+ T cells: 0.039
  Maximum Frequency of TNFα/IFNγ Double Positive CD8+ T cells: 0.039

## NSKMALNSLNSIDDAQLTRIAPPRSHCCFWEVNAP (listed as Homo sapiens) [Neoantigen P35]
[1]
  Maximum fold change over negative control: 2.67
  Maximum frequency of TNFα^+IFNγ^+CD8^+ T cells (Percent): 0.064%
  Immunogenic: Yes
[2]
  Maximum Fold Change Over Background CD4+ cells: 3.47
  Maximum Fold Change Over Background CD8+ cells: 14.44
  Maximum Frequency of TNFα/IFNγ Double Positive CD4+ T cells: 0.03
  Maximum Frequency of TNFα/IFNγ Double Positive CD8+ T cells: 0.26

## P17 (GVPGDSTRRAVRRMNTF; listed as Homo sapiens) [Peptide P17]
[1]
  Maximum frequency of TNFα^+IFNγ^+CD8^+ T cells (Percent): 0.130%
  Immunogenic: Yes
HLA-B*07:02
  Exchange rate with allele specific Pos peptide, HLA-B*07:02: 38.7%
HLA-B*08:01; 100% = same binding as positive control peptide
  Exchange rate with allele specific Pos peptide, HLA-B*08:01: 9%
HLA-A*24:02
  Exchange rate with allele specific Pos peptide, HLA-A*24:02: 0.1%
HLA-A*01:01
  Exchange rate with allele specific Pos peptide, HLA-A*01:01: 4.9%
HLA-A*03:01
  Exchange rate with allele specific Pos peptide, HLA-A*03:01: 3.8%

## P27 (LHPQRETFTPRWSGANYWKLAFPVGAEGTFPAAATQRGVVRPA; listed as Homo sapiens) [Peptide P27]
[1]
  Maximum fold change over negative control: 3.43
  Maximum frequency of TNFα^+IFNγ^+CD8^+ T cells (Percent): 0.430%
  Immunogenic: Yes

## P37 (MAGGVLRRLLCREPDRDGDKGASREETVVPLHIGDPVVLPGIGQCYSALF; listed as Homo sapiens) [Peptide P37]
[1]
  Maximum fold change over negative control: 3.13
  Maximum frequency of TNFα^+IFNγ^+CD8^+ T cells (Percent): 1.160%
  Immunogenic: Yes

## P48 (VQPIARELYQFTFDLLI; listed as Homo sapiens) [Peptide P48]
[1]
  Maximum frequency of TNFα^+IFNγ^+CD8^+ T cells (Percent): 0.220%
  Immunogenic: Yes
HLA-B*07:02
  Exchange rate with allele specific Pos peptide, HLA-B*07:02: 12.8%
HLA-A*02:01
  Exchange rate with allele specific Pos peptide, HLA-A*02:01: 99.3%
HLA-A*24:02
  Exchange rate with allele specific Pos peptide, HLA-A*24:02: 0.1%
HLA-A*01:01
  Exchange rate with allele specific Pos peptide, HLA-A*01:01: 4.3%
HLA-A*03:01
  Exchange rate with allele specific Pos peptide, HLA-A*03:01: 4.4%

## P50 (QMAVIQYSCMGLMVFAM; listed as Homo sapiens) [Peptide P50]
[1]
  Maximum fold change over negative control: 5.14
  Maximum frequency of TNFα^+IFNγ^+CD8^+ T cells (Percent): 0.190%
  Immunogenic: Yes

## P59 (LHPDSGNMVENGCYLRR; listed as Homo sapiens) [Peptide P59]
[1]
  Maximum fold change over negative control: 10.75
  Maximum frequency of TNFα^+IFNγ^+CD8^+ T cells (Percent): 3.010%
  Immunogenic: Yes

## P77 (FFKRAAEGF) [Peptide P77]
[1]
  Maximum fold change over negative control: 3.24
  Maximum frequency of TNFα^+IFNγ^+CD8^+ T cells (Percent): 0.160%
  Immunogenic: Yes
